Values quoted from earlier work, collected in patent publication US20100172972A1, “ENTERIC COATED PHARMACEUTICAL COMPOSITIONS” (priority 2007, published 2010).
Where a name gives a salt, the structure may show the parent alone.

Assays:
[1] = not given; remark: listed apart in the source

## CNCC[C@H](Oc1cccc2ccccc12)c1cccs1 [Duloxetine]
other
  solubility in water: slightly soluble in water

## CNCC[C@H](Oc1cccc2ccccc12)c1cccs1 [Duloxetine hydrochloride]
[1]; pH 1.0
  drug in the dosage hydrolyzed to 1-naphthol: 50%
[1]; pH 2.0, in one hour
  drug in the dosage degrades to 1-naphthol: 10%
[1]; pH 4.0
  time for 10% degradation: up to 63 hours
